Experiment [1] deals with KRAS-G12C (C51S/C80L/C118S) (Homo sapiens, UniProt P01116, C118S/C51S/C80L/G12C). Kind of experiment: SOS-catalyzed nucleotide exchange assay (Procedure A, TR-FRET), KRAS-G12C. The class given is biochemical. The settings on record: nucleotide exchange, Procedure A; read-out: KRAS G12C GNE IC50. The method in brief:
(§1)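 Biotinylated RAS (KRAS-G12C carries C51S/C80L/C118S; others WT background) preloaded with Bodipy-GDP plus Tb-streptavidin, preincubated with compound 60 min at RT, then human SOS and 3 mM GTP added. Final RAS/SOS: G12C 3 nM/40 nM, 60 min; WT 1 nM/40 nM, 60 min; G12V 1.25 nM/160 nM, 90 min; NRAS 1.25 nM/40 nM, 60 min. TR-FRET 520/495 ratio normalized to DMSO and saturating inhibitor; 10-point curves fit four-parameter logistic.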
In general terms: In TR-FRET formats the signal depends on donor and acceptor labels being close together.

The target of the next experiment is KRAS-WT (Homo sapiens, UniProt P01116). Nature of the experiment: SOS-catalyzed nucleotide exchange assay (Procedure A, TR-FRET), KRAS-WT. The class given is biochemical. The settings on record: nucleotide exchange, read-out: KRAS WT GNE IC50. The method in brief:
as §1

The next experiment relates to MKN-1 cells. Nature of the experiment: Cellular phospho-ERK assay, MKN-1 cells (amplified wild-type KRAS). Format: cell-based. The following applies: Homo sapiens, read-out: MKN1 pERK IC50. The method in brief:
(§2)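 Cells seeded at 10,000-15,000 per well were incubated overnight, then exposed to compound for 2 hours at 37 °C in a 10-point, 1:3 series topping at 30 μM final. Lysates were assayed by Alpha SureFire Ultra multiplex for p-ERK and total ERK; IC50 came from a 4-parameter logistic fit of their ratio.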

A further experiment concerns the target KRAS-G12V (Homo sapiens, UniProt P01116, G12V). Kind of experiment: SOS-catalyzed nucleotide exchange assay (Procedure A, TR-FRET), KRAS-G12V. Format: biochemical. The settings on record: nucleotide exchange, read-out: KRAS G12V GNE IC50. The method in brief: as §1
For the next experiment, the target named is KRAS-G12D (Homo sapiens, UniProt P01116, G12D). Kind of experiment: SOS-catalyzed nucleotide exchange assay (Procedure A, TR-FRET), KRAS-G12D. The class given is biochemical. The following applies: nucleotide exchange, read-out: KRAS G12D GNE IC50. In outline:
(§3)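 Signal ratio (520/495 nm, excitation 340 nm) reports Bodipy-GDP retention on biotinylated RAS after SOS-catalyzed exchange with 3 mM GTP. SOS was 40 nM, except 160 nM for G12V. Room-temperature exchange lasted 60 min (90 min for G12V), following a 60 min compound preincubation.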

A further experiment deals with HRAS (Homo sapiens, UniProt P01112). Kind of experiment: SOS-catalyzed nucleotide exchange assay (Procedure A, TR-FRET), HRAS. The class given is biochemical. The settings on record: read-out: HRAS GNE IC50. The method in brief:
as §3

In a further experiment the target is KRAS-G13D (Homo sapiens, UniProt P01116, G13D). Kind of experiment: SOS-catalyzed nucleotide exchange assay (Procedure A, TR-FRET), KRAS-G13D. The class given is biochemical. The settings on record: nucleotide exchange, Procedure A; read-out: KRAS G13D GNE IC50.
Sequence of KRAS-G13D (P01116 with tags, fused parts or gaps isoform P01116-2 G13D): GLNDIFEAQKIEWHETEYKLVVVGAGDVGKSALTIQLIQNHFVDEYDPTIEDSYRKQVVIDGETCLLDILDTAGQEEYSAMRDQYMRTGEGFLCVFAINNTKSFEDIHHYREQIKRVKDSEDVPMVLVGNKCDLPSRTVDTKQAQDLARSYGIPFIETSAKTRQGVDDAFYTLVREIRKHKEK
Another experiment concerns the target NRAS (Homo sapiens, UniProt P01111). Nature of the experiment: SOS-catalyzed nucleotide exchange assay (Procedure A, TR-FRET), NRAS. Format: biochemical. The following applies: read-out: NRAS GNE IC50. From the text:
Procedure for SOS-Catalyzed Nucleotide Exchange Assay for KRAS-WT, G12C/D/V, G13D, HRAS, and NRAS (Procedure A)
Recombinant KRAS-G12C protein used in this assay has an additional triple mutation (C51S/C80L/C118S). Whereas KRAS-WT, G12D/V, G13D, HRAS and NRAS are in context of their WT protein sequence background. Specifically, the SOS-catalyzed nucleotide exchange assay utilizes a preformed TR-FRET complex containing a specific biotinylated RAS protein (KRAS-WT, G12C/V/D, G13D, HRAS, NRAS; described above) with Bodipy-GDP, and Terbium-streptavidin. Compounds are preincubated with this complex for 60 minutes. Subsequently, recombinant human SOS protein and unlabeled GTP are added to initiate the exchange reaction. Small molecule inhibitors stabilize the Bodipy-GDP complex whereas the untreated protein rapidly exchanges Bodipy-GDP for unlabeled GTP resulting in reduced TR-FRET signal.
To assemble the preformed TR-FRET complexes, each biotinylated RAS protein is diluted to 2 μM in an EDTA Buffer (20 mM HEPES pH 7.5, 50 mM sodium chloride, 10 mM EDTA, and 0.01% Tween) and incubated at room temperature for one hour. This mixture is then further diluted to 90 nM in an Assay Buffer (20 mM HEPES pH 7.5, 150 mM sodium chloride, 10 mM magnesium chloride, and 0.005% Tween) containing 15 nM of Terbium-Streptavidin (Invitrogen, catalog #PV3577) and 900 nM of Bodipy-GDP (Invitrogen, catalog #G22360) and incubated at room temperature for six hours. It should be noted that this preformed TR-FRET complex for each of the RAS protein were made ahead of time, aliquoted and stored at −80° C. until the day of the experiment.
Each test compound (10 mM stock in DMSO) is diluted in DMSO to make a final-10-point, 3-fold dilution and is acoustically dispensed into a 384-well assay plate (Corning, catalog #3820) using an Echo 550 (Labcyte). Each well of the assay plate receives 3 μL of a specific 3×RAS preformed TR-FRET complex and 3 μL of Assay Buffer and is incubated at room temperature for 60 minutes (preincubation time). Each well then receives 3 μL of 3×recombinant human SOS protein and GTP (Sigma, G8877) in Assay Buffer and is incubated at room temperature for 30 minutes (G13D), 60 minutes (KRAS WT/G12C/D, H/NRAS) or 90 minutes for G12V. […]
The time-resolved fluorescence resonance energy transfer (TR-FRET) signal is measured on an Envision (PerkinElmer) plate reader: Excitation filter=340 nm; emission 1=495 nm; emission2=520 nm; dichroic mirror=D400/D505; delay time=[…]. The signal of each well is determined as the ratio of the emission at 520 nm to that at 495 nm. Percent effect of each well is determined after normalization to control wells containing DMSO (no effect) or a saturating concentration of inhibitor (max effect). […]

The next experiment deals with AsPC-1 cells. Nature of the experiment: Cellular phospho-ERK assay, AsPC-1 cells (homozygous KRAS-G12D). The following applies: Homo sapiens, ASPC1, 2 h, read-out: AsPC1 pERK IC50. Format: cell-based. In outline:
as §2

The next experiment concerns SW620 cells. Nature of the experiment: Cellular phospho-ERK assay, SW620 cells (homozygous KRAS-G12V). The class given is cell-based. The settings on record: Homo sapiens, read-out: SW620 pERK IC50. In outline:
as §2

A further experiment deals with PANC08.13 cells. Nature of the experiment: Cellular phospho-ERK assay, PANC08.13 cells (homozygous KRAS-G12D). The settings on record: Homo sapiens, read-out: PANC-08.13 pERK IC50. The class given is cell-based. In outline: as §2
[2] abbreviates: amplified wild-type KRAS, 2 hours.
[3] abbreviates: SW-620, 2 hours compound incubation.

This passage reports IC50 results from US20260176289A1, “SMALL MOLECULE INHIBITORS OF KRAS PROTEINS” (Merck Sharp & Dohme LLC, priority 2022, published 2026).

A word on the IC50: it is the concentration that inhibits the measured activity by half.

Read-outs that look alike come from different tables or passages of the source.

Sequence of KRAS-G12V (P01116 with tags, fused parts or gaps isoform P01116-2 G12V): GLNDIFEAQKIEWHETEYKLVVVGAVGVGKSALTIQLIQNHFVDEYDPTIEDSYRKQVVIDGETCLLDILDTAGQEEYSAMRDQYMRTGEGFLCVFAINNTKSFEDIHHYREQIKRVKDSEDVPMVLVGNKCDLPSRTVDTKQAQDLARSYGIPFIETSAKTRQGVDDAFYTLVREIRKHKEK
Sequence of HRAS (P01112 with tags, fused parts or gaps): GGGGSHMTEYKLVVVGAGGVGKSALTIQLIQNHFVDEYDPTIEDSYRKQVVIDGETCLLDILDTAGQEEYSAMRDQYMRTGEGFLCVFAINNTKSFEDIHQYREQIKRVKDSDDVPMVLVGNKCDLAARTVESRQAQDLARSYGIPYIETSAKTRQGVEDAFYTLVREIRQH
Sequence of NRAS (P01111 with tags, fused parts or gaps): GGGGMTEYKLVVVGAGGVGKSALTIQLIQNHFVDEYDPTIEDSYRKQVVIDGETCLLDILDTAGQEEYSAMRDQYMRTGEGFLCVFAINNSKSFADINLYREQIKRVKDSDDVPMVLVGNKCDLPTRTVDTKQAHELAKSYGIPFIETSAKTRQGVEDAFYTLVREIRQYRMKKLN
Sequence of KRAS-WT (P01116 with tags, fused parts or gaps isoform P01116-2): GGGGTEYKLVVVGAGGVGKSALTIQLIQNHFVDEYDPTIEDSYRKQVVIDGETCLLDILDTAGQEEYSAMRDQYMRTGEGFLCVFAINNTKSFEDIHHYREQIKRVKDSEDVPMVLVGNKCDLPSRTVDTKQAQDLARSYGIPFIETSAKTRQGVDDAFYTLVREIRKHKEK
Sequence of KRAS-G12D (P01116 with tags, fused parts or gaps isoform P01116-2 G12D): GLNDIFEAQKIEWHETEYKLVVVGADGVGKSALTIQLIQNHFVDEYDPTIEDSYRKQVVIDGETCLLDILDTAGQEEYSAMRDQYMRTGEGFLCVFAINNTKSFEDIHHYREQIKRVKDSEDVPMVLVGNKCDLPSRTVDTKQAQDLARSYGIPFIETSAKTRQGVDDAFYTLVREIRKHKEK
Sequence of KRAS-G12C (C51S/C80L/C118S) (P01116 with tags, fused parts or gaps isoform P01116-2 G12C/C51S/C80L/C118S): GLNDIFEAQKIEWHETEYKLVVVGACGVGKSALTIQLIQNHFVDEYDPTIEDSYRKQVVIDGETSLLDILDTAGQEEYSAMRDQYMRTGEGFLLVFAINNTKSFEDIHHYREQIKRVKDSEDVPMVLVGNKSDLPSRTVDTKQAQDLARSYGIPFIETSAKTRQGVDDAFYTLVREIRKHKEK

For `CN(C)C[C@@]1(COc2nc(N3CCOC[C@@](C)(O)C3)c3c(n2)sc2c(-c4c(C5CC5)c(Cl)cc5[nH]ncc45)nccc23)CC1(F)F` [Ex-131, (6S)-4-(8-(6-chloro-5-cyclopropyl-1H-indazol-4-yl)-2-(((R)-1-((dimeth-ylamino)methyl)-2,2-difluorocyclo-propyl)methoxy)-pyrido[4′,3′:4,5]thieno[2,3-d]pyr-imidin-4-yl)-6-methyl-1,4-oxaze-pan-6-ol], the concentration for half-maximal inhibition (IC50) in experiment [1] came to 97.9 nM; on KRAS-WT, 11.3 nM; with MKN-1 cells (setting [2]), 22.8 nM; at KRAS-G12V, 18.2 nM; on KRAS-G12D it was 3.57 nM; on HRAS, 389 nM. The half-maximal inhibitory concentration (IC50) at KRAS-G13D was found to be 7.21 nM; on NRAS, 5160 nM; with AsPC-1 cells (KRAS-G12D, 2 hours), 21.8 nM; with SW620 cells (SW-620, KRAS-G12V, 2 hours), 15.1 nM.
Take `Cc1cc2[nH]ncc2c(-c2nccc3c2sc2nc(OC[C@]4(CN(C)C)CC4(F)F)nc(N4CCOC[C@@](C)(O)C4)c23)c1C(F)(F)F` [Ex-130, (6S)-4-(2-(((R)-1-((dimethylamino)-methyl)-2,2-di-fluorocyclopropyl)-methoxy)-8-(6-methyl-5-(trifluoro-methyl)-1H-indazol-4-yl)pyrido[4′,3′: 4,5]thieno[2,3-d]pyrimidin-4-yl)-6-methyl-1,4-oxaze-pan-6-ol]: the IC50 in [1] came to 101 nM; at KRAS-WT, 115 nM; in the experiment on MKN-1 cells (setting [2]), 248 nM; at KRAS-G12V it was 77.2 nM; at KRAS-G12D it was 20.3 nM; at HRAS, 4920 nM. The half-maximal inhibitory concentration (IC50) was 75.2 nM at KRAS-G13D; 68.7 nM in the experiment with AsPC-1 cells (KRAS-G12D, 2 hours); 116 nM with SW620 cells (SW-620, KRAS-G12V, 2 hours); 27.7 nM in the experiment with PANC08.13 cells (PANC-08-13, KRAS-G12D, 2 hours).
As to `C#Cc1c(F)ccc2cc(O)cc(-c3nccc4c3sc3nc(OC[C@@]56CCCN5C[C@H](F)C6)nc(N5CCOC[C@@](C)(O)C5)c34)c12` [Ex-135, (S)-4-(8-(8-ethynyl-7-fluoro-3-hydroxy-naphthalen-1-yl)-2-(((2R,7aS)-2-fluoro-tetrahydro-1H-pyr-rolizin-7a(5H)-yl)-methoxy)pyrido [4′,3′:4,5]thieno[2,3-d]pyrimidin-4-yl)-6-methyl-1,4-oxaze-pan-6-ol], the IC50 in experiment [1] was 9.25 nM; at KRAS-WT, 0.766 nM; with MKN-1 cells (2 hours compound incubation), 3.86 nM; on KRAS-G12V it was 1.08 nM; on KRAS-G12D it was 1.47 nM; at HRAS, 1570 nM. Further, the IC50 on KRAS-G13D amounted to 2.54 nM; at NRAS, 9400 nM; in the experiment on AsPC-1 cells (2 hours compound incubation), 4.61 nM; in the experiment with SW620 cells (setting [3]), 1.5 nM; in the experiment on PANC08.13 cells (PANC-08-13, 2 hours compound incubation) it was 1.4 nM.
In the case of `C#Cc1csc2cc3[nH]ncc3c(-c3nccc4c3sc3nc(OC[C@@]56CCCN5C[C@H](F)C6)nc(N5CCOC[C@@](C)(O)C5)c34)c12` [Ex-163, (6S)-4-(8-(5-ethyn-yl-1H-thieno[3,2-f]indazol-4-yl)-2-(((2R,7aS)-2-fluoro-tetrahydro-1H-pyr-rolizin-7a(5H)-yl)-methoxy)pyrido [4′,3′:4,5]thieno[2,3-d]pyrimidin-4-yl)-6-methyl-1,4-oxaze-pan-6-ol], the IC50 was found to be 19.8 nM in experiment [1]; 3.79 nM at KRAS-WT; 20.8 nM in the experiment with MKN-1 cells (2 hours compound incubation); 4.53 nM on KRAS-G12V; 2.36 nM at KRAS-G12D; 1450 nM at HRAS. For the same compound, the half-inhibitory concentration (IC50) at KRAS-G13D was found to be 3.13 nM; on NRAS, 7370 nM; with AsPC-1 cells (2 hours compound incubation), 14.6 nM; in the experiment on SW620 cells (setting [3]), 2.29 nM.
For the compound `C[C@@]1(O)COCCN(c2nc(OC[C@@]34CCCN3C/C(=C/F)C4)nc3sc4c(-c5c(C6CC6)c(Cl)cc6[nH]ncc56)nccc4c23)C1` [Ex-209, (6S)-4-(8-(6-chloro-5-cyclopropyl-1H-indazol-4-yl)-2-(((S,E)-2-(fluoro-methylene)tetra-hydro-1H-pyrrol-izin-7a(5H)-yl)-methoxy)pyrido [4′,3′:4,5]thieno [2,3-d]pyrimidin-4-yl)-6-methyl-1,4-oxazepan-6-ol], the 50% inhibitory concentration (IC50) in [1] stood at 47.7 nM; at KRAS-WT, 9.46 nM; in the experiment on MKN-1 cells (2 hours compound incubation), 158 nM; at KRAS-G12V, 12 nM; on KRAS-G12D, 2.91 nM; on HRAS, 9430 nM. Besides, the values for the half-maximal inhibitory concentration (IC50) on KRAS-G13D, in the experiment on AsPC-1 cells (2 hours compound incubation) and in the experiment on SW620 cells (setting [3]) were 13.6 nM, 53 nM and 49.7 nM, respectively.
